# Experimental data from patent publication US8921321B2, “Therapeutic strategies for prevention and treatment of alzheimer's disease” (Isis Innovation Ltd., priority 2001, dated 2014).
# How the values were obtained:
# [1] = test system: SH-SY5Y human neuroblastoma cells; assay: MTT proliferation and cell survival assay; type: cell-based; conditions: drug alone: rapamycin 100 ng/ml, doxorubicin 1 μM, dexrazoxane 200 μM; vs control cultures; FIG. 1a
# Experimental: (§1) SH-SY5Y cells were treated with three candidate agents: rapamycin (Rapa) at 100 ng/ml, doxorubicin (Doxo) at 1 μM and Dexrazoxane (DexRaz) at 200 μM and then tested one day (d1) and two days (d2) after treatment for the following 7 parameters, which are indicative of cell cycle defects and “AD-type” pathology:
# (§2) In order to evaluate the effect of drug pre-treatment is protecting against the effects of oxidative stress cells were subjected to oxidative stress (by treatment with 120 μM H2O2) in the absence of drug treatment and after treatment with rapamycin or dexrazoxane, and then tested for the same parameters. Results are shown in FIGS. 1-7, panel b (FIG. 1b, FIG. 2b, FIG. 3b, FIG. 4b, FIG. 5b, FIG. 6b, FIG. 7b).
# Finally, cells were treated with doxorubicin after treatment with rapamycin or dexrazoxane and then tested for the same parameters, to evaluate the effects of combined treatment. […]
# Cell survival and proliferation was assessed by MTT proliferation and cell survival assay, performed according to the manufacturers recommendations (Chemicon International, Ltd., Hampshire, UK) in the final 4 hours of the 24 hours period. The results of the assay were evaluated using an Opsys MR ELISA plate reader (Dynex Technologies, Middlesex, UK) at 570 nm with a reference wavelength of 630 nm.
# [2] = test system: SH-SY5Y human neuroblastoma cells; assay: Apoptosis by flow cytometry (sub-G1 DNA content); type: cell-based; conditions: drug alone: rapamycin 100 ng/ml, doxorubicin 1 μM, dexrazoxane 200 μM, FIG. 2a
# Experimental: as §1, §2
# (§3) Finally, cells were treated with doxorubicin after treatment with rapamycin or dexrazoxane and then tested for the same parameters, to evaluate the effects of combined treatment. Results are shown in FIGS. 1-7, panel c (FIG. 1c, FIG. 2c, FIG. 3c, FIG. 4c, FIG. 5c, FIG. 6c, FIG. 7c).
# (§4) SH-SY5Y human neuroblastoma cells were cultured in Dulbecco's modified Eagle's medium (DMEM)/F12 supplemented with 10% fetal calf serum (FCS, PAA Laboratories, Austria), 2 mM L-glutamine, 100 IU/ml penicillin and 100 μg/ml streptomycin (Gibco) in a humidified incubator at 37° C. and 5% CO2.
# (§5) After 24 h incubation the culture medium was replaced by DMEM/F12 with 10% FCS containing various concentrations of drug. The cells were incubated for another 24 or 48 hours.
# (§6) The cell cultures were repeated in identical conditions in order to analyze cell cycle kinetics by flow cytometry and to study protein expression.
# (§7) The cultures prepared for flow cytometry were harvested after a short incubation with Trypsin EDTA (Sigma) in PBS. Cells were fixed in 70% ice-cold alcohol. Prior to staining with propidium iodide (PI) the samples were washed twice in PBS containing Triton-X at 0.1%. On flow cytometry the ratio of G1 and G2 cells was measured. Cells with sub-G1 DNA content were regarded as the apoptotic fraction.
# [3] = test system: SH-SY5Y human neuroblastoma cells; assay: Relative lengthening of the G1 phase of the cell cycle by flow cytometry; type: cell-based; conditions: drug alone, FIG. 3a
# Experimental: as §1, §2
# Finally, cells were treated with doxorubicin after treatment with rapamycin or dexrazoxane and then tested for the same parameters, to evaluate the effects of combined treatment. Results are shown in FIGS. 1-7, panel c (FIG. 1c, FIG. 2c, FIG. 3c, FIG. 4c, FIG. 5c, FIG. 6c, FIG. 7c). […]
# The cultures prepared for flow cytometry were harvested after a short incubation with Trypsin EDTA (Sigma) in PBS. […] On flow cytometry the ratio of G1 and G2 cells was measured. […]
# [4] = test system: SH-SY5Y human neuroblastoma cells; assay: Relative lengthening of the G2 phase of the cell cycle by flow cytometry; type: cell-based
# Experimental: as §1, §2, §3, §4, §5, §6, §7
# [5] = test system: amyloid precursor protein (APP); assay: ELISA of APP expression in SH-SY5Y cell lysates; type: cell-based, human; conditions: for Expression of APP: drug alone, FIG. 5a
# Experimental: as §1, §2, §3, §4, §5, §6
# (§8) The cultures prepared for protein expression assays were harvested after a short wash with cold PBS by scraping. The collected cells were lysed in 150 μl of lysis buffer containing 50 mM Tris-HCl (pH 7.4), 100 mM NaCl, 1 mM EDTA, 0.5% (v/v) Nonidet P-40, 50 mM NaF, 0.2 mM Na3VO4, 20 μg/ml phenylmethylsulfonyl fluoride, and 5 μg/ml leupeptin, and incubated on ice for 30 min. The cell lysate was centrifuged at 14,000 g for 20 min at 4° C. to remove insoluble pellets. Protein concentration was determined by the Bradford assay. ELISA assays were performed using a panel of antibodies. Secondary antibodies (anti rabbit or anti mouse as appropriate) conjugated to horseradish peroxidase were used.
# [6] = test system: AD-type hyperphosphorylated tau protein; assay: ELISA of AD-type hyperphosphorylated tau (AT8) in SH-SY5Y cell lysates; type: cell-based, human; conditions: for Expression of AD-type hyperphosphorylated tau: drug alone, FIG. 6a
# Experimental: as §1, §2, §3, §4, §5, §6, §8
# [7] = test system: AD-type paired helical filament (PHF) tau protein; assay: ELISA of AD-type PHF tau (Tau2) in SH-SY5Y cell lysates; type: cell-based, human; conditions: for Expression of AD-type PHF tau: drug alone, FIG. 7a
# Experimental: as §1, §2, §3, §4, §5, §6, §8
# [8] = test system: AD-related proteins; assay: ELISA of AD-related proteins overall (APP, phospho tau, PHF tau) in SH-SY5Y cell lysates; type: cell-based, human
# Experimental: as §1, §2, §3, §4, §5, §6
# The cultures prepared for protein expression assays were harvested after a short wash with cold PBS by scraping. The collected cells were lysed in 150 μl of lysis buffer containing 50 mM Tris-HCl (pH 7.4), 100 mM NaCl, 1 mM EDTA, 0.5% (v/v) Nonidet P-40, 50 mM NaF, 0.2 mM Na3VO4, 20 μg/ml phenylmethylsulfonyl fluoride, and 5 μg/ml leupeptin, and incubated on ice for 30 min. […] Protein concentration was determined by the Bradford assay. […]
# [9] = drug alone, after 1 day (day 2), FIG. 4a
structure (smiles),measurement,setting,value
"C[C@@H](CN1CC(=O)NC(=O)C1)N1CC(=O)NC(=O)C1 [dexrazoxane, Dexrazoxane]",Cell survival and proliferation (cell numbers),[1],reduced cell numbers only after 2 days of treatment
same,Apoptosis,[2],did not seem to protect cells against apoptotic cell death as efficiently as rapamycin did
same,Apoptosis,[2]; listed as Dexrazoxane,did not confer protection against cell death on its own
same,Length of the G1 phase of the cell cycle,[3],acceleration of the G1 phase of the cell cycle
same,Length of the G2 phase of the cell cycle,[4]; [9],massive G2 lengthening on day 2
same,Length of the G2 phase of the cell cycle,"[4]; drug alone, day one, FIG. 4a",little change in G2 time on day one
same,Length of the G2 phase of the cell cycle,"[4]; drug pre-treatment followed by doxorubicin, FIG. 4c",increased the G2 lengthening effect of doxorubicin
same,Expression of APP,[5]; day two,by day two all three proteins were reduced in the cell lysates
same,Expression of APP,[5]; first day,increased the expression of all three AD-related proteins on the first day
same,APP production,"[5]; drug pre-treatment followed by doxorubicin, FIG. 5c",reduction of the APP and PHF-tau production
same,Expression of AD-type hyperphosphorylated tau,[6]; day two,by day two all three proteins were reduced in the cell lysates
same,Expression of AD-type hyperphosphorylated tau,[6]; first day,increased the expression of all three AD-related proteins on the first day
same,Phospho-tau production,"[6]; drug pre-treatment followed by doxorubicin, FIG. 6c",did not significantly effect the phospho-tau production
same,Expression of AD-type PHF tau,[7]; day two,by day two all three proteins were reduced in the cell lysates
same,Expression of AD-type PHF tau,[7]; first day,increased the expression of all three AD-related proteins on the first day
same,PHF tau formation,"[7]; drug pre-treatment followed by doxorubicin, FIG. 7c",reduction of the APP and PHF-tau production
same,AD-related protein expression (overall),[8]; drug alone,effectively reduced AD-related protein expression after two days in culture
same,AD-related protein expression (overall),"[8]; drug pre-treatment followed by doxorubicin, summary statement",protective effects against AD-related protein expression became more robust
COc1cccc2c1C(=O)c1c(O)c3c(c(O)c1C2=O)C[C@@](O)(C(=O)CO)C[C@@H]3O[C@H]1C[C@H](N)[C@H](O)[C@H](C)O1 [doxorubicin],Cell survival and proliferation (cell numbers),[1],reduced cell numbers
same,Apoptosis,[2],seems to be protective against apoptotic cell death
same,Apoptosis,[2]; listed as Doxorubicin,appeared to be protective against apoptosis
same,Length of the G1 phase of the cell cycle,[3]; after 1 day (day 2),effect on G1 was reversed after 1 day
same,Length of the G2 phase of the cell cycle,"[4]; drug alone, FIG. 4a",lengthening of the G2 phase
same,Length of the G2 phase of the cell cycle,"[4]; drug alone, FIG. 4a, listed as Doxorubicin",lengthening of the G2 phase of the cell cycle
same,Length of the G2 phase of the cell cycle,[4]; [9],G2 inhibitory effect diminished
same,Expression of APP,[5],elevated expression of APP
same,Expression of AD-type hyperphosphorylated tau,[6],reduction of phospho-tau
same,Expression of AD-type PHF tau,[7],elevated expression
same,AD-related protein expression (overall),[8]; drug alone,elevation of AD-related protein expression
